Here are results for 34 compounds from patent US20050004126A1 (priority 2001, published 2005).

One may read the IC50 as the concentration that gives 50% inhibition. Higher therefore signals lower potency.
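Also: inhibition of enzymatic thiopeptolide substrate cleavage (100 µM) in pH 6.0 MES buffer with CaCl2 and DTNB, comparing hydrolysis with versus without inhibitor.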

The test concerns the target MMP-13CD (catalytic domain of collagenase 3) (Homo sapiens, UniProt P45452). The test is described as follows: biochemical.
The compound `O=C(NCc1ccc(Cl)cc1)c1ccc2[nH]c(=O)n(Cc3ccccc3)c(=O)c2c1` [3-Benzyl-2,4-dioxo-1,2,3,4-tetrahydroquinazoline-6-carboxylic acid 4-chlorobenzylamide] gave an IC50 of 167 nM.

The compound `COc1ccc(CNC(=O)c2ccc3[nH]c(=O)n(Cc4ccccc4)c(=O)c3c2)cc1` [3-Benzyl-2,4-dioxo-1,2,3,4-tetrahydroquinazoline-6-carboxylic acid 4-methoxybenzylamide] registered an IC50 of 49 nM.

In turn, `Cc1ccc(CNC(=O)c2ccc3[nH]c(=O)n(Cc4ccccc4)c(=O)c3c2)cc1` [3-Benzyl-2,4-dioxo-1,2,3,4-tetrahydroquinazoline-6-carboxylic acid 4-methylbenzylamide] displayed a half-inhibitory concentration (IC50) of 1320 nM.

For `O=C(NCc1cccs1)c1ccc2[nH]c(=O)n(Cc3ccccc3)c(=O)c2c1` [3-Benzyl-2,4-dioxo-1,2,3,4-tetrahydroquinazoline-6-carboxylic acid (2-thienylmethyl)amide], 1870 nM corresponded to half-maximal inhibition (IC50).

Turning to `O=C(NCc1cccnc1)c1ccc2[nH]c(=O)n(Cc3ccccc3)c(=O)c2c1` [3-Benzyl-2,4-dioxo-1,2,3,4-tetrahydroquinazoline-6-carboxylic acid (3-pyridylmethyl)amide], 366 nM corresponded to half-maximal inhibition (IC50).

For the compound `O=C(NCc1ccncc1)c1ccc2[nH]c(=O)n(Cc3ccccc3)c(=O)c2c1` [3-Benzyl-2,4-dioxo-1,2,3,4-tetrahydroquinazoline-6-carboxylic acid (4-pyridylmethyl)amide], the half-maximal inhibitory concentration (IC50) turned out to be 183 nM.

Take `O=C(OCc1ccncc1)c1cnc2[nH]c(=O)n(Cc3ccccc3)c(=O)c2c1` [4-Pyridylmethyl 3-benzyl-2,4-dioxo-1,2,3,4-tetrahydropyrido[2,3-d]-pyrimidine-6-carboxylate]: the IC50 came to 62 nM.

The compound `O=C(OCc1ccccc1)c1ccc2c(c1)c(=O)n(Cc1ccncc1)c(=O)n2Cc1ccccc1` [Benzyl 1-benzyl-2,4-dioxo-3-pyrid-4-ylmethyl-1,2,3,4-tetrahydroquin-azoline-6-carboxylate] registered an IC50 of 1210 nM.

Consider `O=C(OCc1ccccc1)c1cnc2[nH]c(=O)n(Cc3ccccc3)c(=O)c2c1` [Benzyl 3-benzyl-2,4-dioxo-1,2,3,4-tetrahydropyrido[2,3-d]pyrimidine-6-carboxylate], for which the half-inhibitory concentration (IC50) is 96 nM.

The compound `COC(=O)c1ccc(CNC(=O)c2ccc3c(c2)c(=O)n(Cc2ccccc2)c(=O)n3C)cc1` [Methyl 4-({[1-(3-benzyl-1-methyl-2,4-dioxo-1,2,3,4-tetrahydroquin-azolin-6-yl)methanoyl]amino}methyl)benzoate] had an IC50 of 2250 nM.

The compound `O=C(NCc1ccccc1)c1ccc2[nH]c(=O)n(Cc3ccccc3)c(=O)c2c1` [Synthesis Example 22, 3-Benzyl-2,4-dioxo-1,2,3,4-tetrahydroquinazoline-6-carboxylic acid benzylamide] registered a 50% inhibitory concentration (IC50) of 193 nM.

`O=C(NCc1ccc2c(c1)OCO2)c1ccc2[nH]c(=O)n(Cc3ccccc3)c(=O)c2c1` [Synthesis Example 23, 3-Benzyl-2,4-dioxo-1,2,3,4-tetrahydroquinazoline-6-carboxylic acid (benzo[1,3]dioxol-5-ylmethyl)amide] came in with a concentration for half-maximal inhibition (IC50) of 21 nM.

In turn, `Cn1c(=O)n(Cc2ccccc2)c(=O)c2cc(C(=O)NCc3ccc4c(c3)OCO4)ccc21` [Synthesis Example 24] returned an IC50 of 5 nM.

As for `COc1cc(CNC(=O)c2ccc3c(c2)c(=O)n(Cc2ccccc2)c(=O)n3C)ccc1O` [Synthesis Example 25, 3-Benzyl-1-methyl-2,4-dioxo-1,2,3,4-tetrahydroquinazoline-6-carboxylic acid 4-hydroxy-3-methoxybenzylamide], the IC50 came out at 51 nM.

`COc1ccc(CNC(=O)c2ccc3c(c2)c(=O)n(Cc2ccccc2)c(=O)n3C)cc1` [Synthesis Example 26, 3-Benzyl-1-methyl-2,4-dioxo-1,2,3,4-tetrahydroquinazoline-6-carboxylic acid 4-methoxybenzylamide] came in with an IC50 of 12 nM.

In turn, `COc1ccc(Cn2c(=O)[nH]c3ccc(C(=O)NCc4ccc5c(c4)OCO5)cc3c2=O)cc1` [Synthesis Example 27, 3-(4-Methoxybenzyl)-2,4-dioxo-1,2,3,4-tetrahydroquinazoline-6-carboxylic acid (benzo[1,3]dioxol-5-ylmethyl)amide] came in with an IC50 of 15 nM.

In turn, `COc1ccc(Cn2c(=O)c3cc(C(=O)NCc4ccc5c(c4)OCO5)ccc3n(C)c2=O)cc1` [Synthesis Example 28, 3-(4-Methoxybenzyl)-1-methyl-2,4-dioxo-1,2,3,4-tetrahydroquinazoline-6-carboxylic acid (benzo[1,3]dioxol-5-ylmethyl)amide] showed a half-inhibitory concentration (IC50) of 9 nM.

`COc1ccc(CNC(=O)c2ccc3c(c2)c(=O)n(Cc2ccc(OC)cc2)c(=O)n3C)cc1` [Synthesis Example 29, 3-(4-Methoxybenzyl)-1-methyl-2,4-dioxo-1,2,3,4-tetrahydroquinazoline-6-carboxylic acid 4-methoxybenzylamide]: the IC50 turned out to be 10 nM.

`O=C(NCc1ccc2c(c1)OCO2)c1ccc2[nH]c(=O)n(Cc3cccs3)c(=O)c2c1` [Synthesis Example 30, 2,4-Dioxo-3-(thien-2-ylmethyl)-1,2,3,4-tetrahydroquinazoline-6-carboxylic acid (benzo[1,3]dioxol-5-ylmethyl)amide] registered a 50% inhibitory concentration (IC50) of 29 nM.

In turn, `Cn1c(=O)n(Cc2cccs2)c(=O)c2cc(C(=O)NCc3ccc4c(c3)OCO4)ccc21` [Synthesis Example 31, 1-Methyl-2,4-dioxo-3-(thien-2-ylmethyl)-1,2,3,4-tetrahydroquinazoline-6-carboxylic acid (benzo[1,3]dioxol-5-ylmethyl)amide] had an IC50 of 9 nM.

Compound `O=C(NCc1ccc2c(c1)OCO2)c1ccc2[nH]c(=O)n(Cc3ccc(Cl)cc3)c(=O)c2c1` [Synthesis Example 32, 3-(4-Chlorobenzyl)-2,4-dioxo-1,2,3,4-tetrahydroquinazoline-6-carboxylic acid (benzo[1,3]dioxol-5-ylmethyl)amide] came in with an IC50 of 28 nM.

`Cn1c(=O)n(Cc2ccc(Cl)cc2)c(=O)c2cc(C(=O)NCc3ccc4c(c3)OCO4)ccc21` [Synthesis Example 33, 3-(4-Chlorobenzyl)-1-methyl-2,4-dioxo-1,2,3,4-tetrahydroquinazoline-6-carboxylic acid (benzo[1,3]dioxol-5-ylmethyl)amide] came in with a half-maximal inhibitory concentration (IC50) of 9 nM.

Compound `O=C(NCc1ccc2c(c1)OCO2)c1ccc2[nH]c(=O)n(Cc3ccc4c(c3)OCO4)c(=O)c2c1` [Synthesis Example 34, 3-(Benzo[1,3]dioxol-5-ylmethyl)-2,4-dioxo-1,2,3,4-tetrahydroquinazoline-6-carboxylic acid (benzo[1,3]dioxol-5-ylmethyl)amide] yielded an IC50 of 17 nM.

`Cn1c(=O)n(Cc2ccc3c(c2)OCO3)c(=O)c2cc(C(=O)NCc3ccc4c(c3)OCO4)ccc21` [Synthesis Example 35, 3-(Benzo[1,3]dioxol-5-ylmethyl)-1-methyl-2,4-dioxo-1,2,3,4-tetrahydroquinazoline-6-carboxylic acid (benzo[1,3]dioxol-5-ylmethyl)amide] showed an IC50 of 3 nM.

Turning to `CCn1c(=O)n(Cc2ccccc2)c(=O)c2cc(C(=O)NCc3ccc4c(c3)OCO4)ccc21` [Synthesis Example 36, 3-Benzyl-1-ethyl-2,4-dioxo-1,2,3,4-tetrahydroquinazoline-6-carboxylic acid (benzo[1,3]dioxol-5-ylmethyl)amide], the half-maximal inhibitory concentration (IC50) is 26 nM.

Regarding `Cn1c(=O)[nH]c(=O)c2cc(C(=O)NCc3ccc4c(c3)OCO4)ccc21` [Synthesis Example 37, 1-Methyl-2,4-dioxo-1,2,3,4-tetrahydroquinazoline-6-carboxylic acid (benzo[1,3]dioxol-5-ylmethyl)amide], the IC50 came to 920 nM.

As for `COC(=O)c1ccc(Cn2c(=O)c3cc(C(=O)NCc4ccc(OC)cc4)ccc3n(C)c2=O)cc1` [Synthesis Example 38, 4-[6-(4-Methoxy-benzylcarbamoyl)-1-methyl-2,4-dioxo-1,4-dihydro-2H-quinazolin-3-ylmethyl]-benzoic acid methyl ester], the IC50 was 4 nM.

As for `Cn1c(=O)n(C/C=C/c2ccccc2)c(=O)c2cc(C(=O)NCc3ccc4c(c3)OCO4)ccc21` [Synthesis Example 40, 1-Methyl-2,4-dioxo-3-((E)-3-phenylallyl)-1,2,3,4-tetrahydroquinazoline-6-carboxylic acid (benzo[1,3]dioxol-5-ylmethyl)amide], half-maximal inhibition (IC50) required 22 nM.

Consider `O=C(OCc1ccccc1)c1ccc2[nH]c(=O)n(Cc3ccccc3)c(=O)c2c1` [Synthesis Example 41, Benzyl 3-benzyl-2,4-dioxo-1,2,3,4-tetrahydroquinazoline-6-carboxylate], for which the IC50 turned out to be 29 nM.

For `Cn1c(=O)n(Cc2ccccc2)c(=O)c2cc(C(=O)OCc3ccccc3)ccc21` [Synthesis Example 42, Benzyl 3-benzyl-1-methyl-2,4-dioxo-1,2,3,4-tetrahydroquinazoline-6-carboxylate], the IC50 stood at 31 nM.

The compound `O=C(OCc1ccncc1)c1ccc2[nH]c(=O)n(Cc3ccccc3)c(=O)c2c1` [Synthesis Example 43, 4-Pyridylmethyl 3-benzyl-2,4-dioxo-1,2,3,4-tetrahydroquinazoline-6-carboxylate] showed an IC50 of 11 nM.

In the case of `Cn1c(=O)n(Cc2ccccc2)c(=O)c2cc(C(=O)OCc3ccncc3)ccc21` [Synthesis Example 44, 4-Pyridylmethyl 3-benzyl-1-methyl-2,4-dioxo-1,2,3,4-tetrahydroquinazoline-6-carboxylate], the half-maximal inhibitory concentration (IC50) came to 4 nM.

Turning to `O=C(OCc1ccc2c(c1)OCO2)c1ccc2[nH]c(=O)n(Cc3ccccc3)c(=O)c2c1` [Synthesis Example 45, Benzo[1,3]dioxol-5-ylmethyl 3-benzyl-2,4-dioxo-1,2,3,4-tetrahydroquinazoline-6-carboxylate], it took 7 nM to reach half-maximal inhibition (IC50).

Compound `Cn1c(=O)n(Cc2ccccc2)c(=O)c2cc(C(=O)OCc3ccc4c(c3)OCO4)ccc21` [Synthesis Example 46, Benzo[1,3]dioxol-5-ylmethyl 3-benzyl-1-methyl-2,4-dioxo-1,2,3,4-tetrahydroquinazoline-6-carboxylate] showed an IC50 of 2.5 nM.
